Data reported in patent US20260085071A1, “NOVEL CRYSTALLINE FORM OF 1-(8-BROMOPYRIDO[2,3- E][1,2,4]TRIAZOLO[4,3-A]PYRAZIN-4-YL)-NMETHYLAZETIDIN- 3-AMINE” (JW PHARMACEUTICAL CORPORATION, priority 2022, published 2026).

Experiments:
[1] = system: inflammatory cells such as mast cells and eosinophils; settings: background statement, U.S. Pat. No. 9,586,959; cited from earlier work
histamine 4 receptor = histamine 4 receptor (Homo sapiens, UniProt Q9H3N8); settings: background statement, U.S. Pat. No. 9,586,959; cited from earlier work
[2] = Stress testing at high temperature and high humidity; format: physicochemical; settings: high temperature (60° C.) and high humidity (75%) for 4 weeks
[3] = Stability of polymorphic form during gentle drying; format: physicochemical; settings: pure polymorphic forms from crystallization experiments
[4] = Thermodynamic (thermal) stability of crystalline form; format: physicochemical; settings: solid crystalline form
Method: TGA experiments were conducted using a TGA550 instrument from TA Instruments. About 1-10 mg of sample was loaded into a ceramic pan for the measurements. The sample temperature was ramped from 25 to 500° C. at 10° C./min. Nitrogen was used as the purge gas at a flow rate of 50 mL/min.
DSC: Heating rate of 10° C./min under a nitrogen atmosphere. About 1-2 mg of sample was loaded into an open aluminum pan for the measurements. Instrument Q20 from TA Instruments.

Chain of histamine 4 receptor (Q9H3N8 whole entry): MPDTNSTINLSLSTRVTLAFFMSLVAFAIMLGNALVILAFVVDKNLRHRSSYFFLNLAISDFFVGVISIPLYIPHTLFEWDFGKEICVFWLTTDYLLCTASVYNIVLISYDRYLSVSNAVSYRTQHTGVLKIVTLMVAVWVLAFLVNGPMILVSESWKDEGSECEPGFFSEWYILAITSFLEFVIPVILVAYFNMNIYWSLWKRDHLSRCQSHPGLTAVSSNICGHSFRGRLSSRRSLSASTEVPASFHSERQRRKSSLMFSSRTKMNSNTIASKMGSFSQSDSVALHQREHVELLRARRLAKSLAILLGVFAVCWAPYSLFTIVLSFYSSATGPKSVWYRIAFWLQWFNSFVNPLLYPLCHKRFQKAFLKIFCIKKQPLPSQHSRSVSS

| SMILES | effects against histamine induced infiltration of inflammatory cells [1] | histamine 4 receptor inhibitory effect (histamine 4 receptor) | stability during stress testing [2] | stability during gentle drying [3] | thermodynamically stable up to [4] |
| --- | --- | --- | --- | --- | --- |
| CNC1CN(c2nc3ncc(Br)cc3n3cnnc23)C1 [1-(8-bromopyrido[2,3-e][1,2,4]triazolo[4,3-a]pyrazin-4-yl)-N-methylazetidin-3-amine] | suppressive effects | strong | – | – | – |
| CNC1CN(c2nc3ncc(Br)cc3n3cnnc23)C1 [Form A, 1-(8-bromopyrido[2,3-e][1,2,4]triazolo[4,3-a]pyrazin-4-yl)-N-methylazetidine-3-amine] | – | – | stable | stable | up to 273 °C |
